The values below come from patent publication US20080045547A1, “Salts And Co-Crystals of Pyrazolopyrimidine Compounds, Compositions Thereof And Methods For Their Production And Use” (priority 2006, published 2008).

Values joined by “and” are separate entries in the source; they are usually repeats but may differ in a detail not shown here. Equal entries are not always repeated. “Also recorded” adds a separate entry of the source. Structures can show the parent of a compound that is named as a salt.

Series [1] can be described thus: Pharmacokinetics of different salt forms of ocinaplon after a single oral dose. The class given is in vivo. The conditions noted are these: male beagle dogs; for Tmax / half-life / AUC(0-inf) / AUC(0-t) / Cmax: dog, plasma; for AUC of ocinaplon relative to an equivalent amount of the free base / Cmax of ocinaplon relative to an equivalent amount of the free base / variability in plasma levels of ocinaplon compared to the free base / variability in the AUC (CV %) compared to the free base: oral 30 mg free base/kg; for AUC(0-inf) / AUC(0-t) / Cmax: male, beagle, po. As for the experimental part: The test compounds were prepared in 0.5% methylcellulose. The target concentrations of the free base and HBr salt were 1.0 and 1.34 mg/mL (equivalent to 1 mg of the free base), respectively. The liquid suspensions were administered via oral gavage. Prior to removing the gavage tube, the tube was flushed with approximately 5 mL of water.
Blood (approximately 2 mL) was collected from a jugular vein via syringe and needle and transferred into tubes containing K2EDTA anticoagulant predose and at 0.5, 1, 2, 3, 4, 6, 8, 12, and 24 hours postdose. Blood was maintained on wet ice, in chilled Kryoracks, or at approximately 5° C. prior to centrifugation to obtain plasma. Centrifugation began within 1 hour of collection. Plasma was placed on dry ice prior to storage at approximately −70° C. Plasma samples, remaining test compounds, and remaining dose formulations were shipped on dry ice to the analysis site and stored at approximately −70° C. before and after analysis. Samples were analyzed using an LC/MS/MS method. Plasma concentration-time data for each dog and formulation were analyzed using a noncompartmental model assumption with WinNonlin, version 4.1 (Pharsight Corporation, Mountain View, Calif.). All calculations were based on the nominal times as actual sample collection times departed minimally from the schedule times.
The pharmacokinetic parameters of different pyrazolopyrimidine acid salts vary in an apparently salt and compound dependent fashion. This is illustrated by a comparison of the pharmacokinetic properties of different acid salts of the pyrazolopyrimidine, ocinaplon. This study was performed in a manner similar to the study described in Example 9 hereinabove. The concentrations of the HCl, HBr and disulfate salts of ocinaplon were 3.72 mg/mL, 4.61 mg/mL and 4.95 mg/mL, respectively. All concentrations were calculated to be 3.0 mg free base/mL; the dose volume was […]. […] […] These findings exemplify and underscore the differences in pharmacokinetic profiles among these three exemplary salts of ocinaplon.

Series [2] in a line: Equilibrium aqueous solubility from solid. As to conditions: H20, room temperature overnight; for solubility: water, thermodynamic from solid. Format: physicochemical. As for the experimental part: Samples of the ocinaplon salts shown above were evaluated for equilibrium aqueous solubility from solid. Duplicate samples of ocinaplon were accurately weighed and diluted to 1 ml with water to 6.83 mg/ml and 6.43 mg/ml. Duplicate samples of Ocinaplon di HCl salt were accurately weighed and diluted to 1 ml with water to 5.5 mg/ml and 6.0 mg/ml. Ocinaplon di HBr salt was accurately weighed and diluted to 1 ml with water to 6.1 mg/ml and 5.8 mg/ml. Ocinaplon disulfate salt was accurately weighed and diluted to 1 ml with water to 7.5 mg/ml and 6.5 mg/ml. Any change in pH of the water following sample addition was recorded. After equilibration at room temperature overnight the solutions were filtered and solute concentration determined by fast gradient HPLC with UV/VIS/MS detection with reference to 5, 10, 50, 100 and 250 μM analytical standards. Prior to sample filtration, filters were primed with 600 μl of sample to resolve potential adsorption problems. Both sample replicates were collected through the primed filter. Duplicate determinations were made in all cases.

Where [3] appears, read: 30 mg/kg, single oral dose 30 mg Base/kg, 0.5% methylcellulose suspension, mean (CV %), N = 5.
Where [4] appears, read: single oral dose 50 mg/kg, 0.5% MC, mean (CV %).
Setting [5] is: 30 mg/kg, apparently scaled from 50 mg/kg, 0.5% MC.
Where [6] appears, read: 50 mg/kg, single oral dose 50 mg/kg, 0.5% MC, mean (CV %).

One may read the Tmax as the time from dosing to the highest level. What is called half-life is the time in which the quantity being followed falls by half. The AUC(0-inf) is total exposure, with the tail of the curve extrapolated. The term AUC(0-t) denotes the area under the concentration-time curve up to a stated or last time point. As usually defined, the Cmax is the peak of the concentration-time curve. The term solubility denotes how much of the substance goes into solution per volume. A high value points to a readily soluble substance. Take `Cl.Cl.O=C(c1ccccn1)c1cnn2c(-c3ccncc3)ccnc12` [Ocinaplon di HCl salt]: in series [1] (setting [3]), the Tmax was determined as 1.1 h, the half-life is 1.05 h, the AUC(0-inf) was 57300 ng·h/mL and the AUC(0-t) came out at 57100 ng·h/mL. Further, the Cmax in series [1] (setting [3]) was determined as 15000 ng/mL. In series [1], the “AUC of ocinaplon relative to an equivalent amount of the free base” value is reported as “almost twice as high”, the “Cmax of ocinaplon relative to an equivalent amount of the free base” value is recorded as “more than two-fold”, the “variability in plasma levels of ocinaplon compared to the free base” value is listed as “lower variability” and the “variability in the AUC (CV %) compared to the free base” value is listed as “much less variability”. Also, in series [2], the solubility is 12600 µM and 4700 µg/mL.

For the compound `O=C(c1ccccn1)c1cnn2c(-c3ccncc3)ccnc12` [Ocinaplon disulfate salt], in series [1] (setting [3]), the Tmax worked out at 0.8 h, the half-life is 0.95 h, the AUC(0-inf) was 46400 ng·h/mL and the exposure AUC(0-t) was determined as 46300 ng·h/mL. Moreover, the Cmax in series [1] (setting [3]) amounted to 14800 ng/mL. In series [1], the “Cmax of ocinaplon relative to an equivalent amount of the free base” value is recorded as “more than two-fold”. Moreover, the “Equilibrium Aqueous Solubility from Solid” value in series [2] was 10.6 mM and 5.3 mg/ml.

As for `Br.Br.O=C(c1ccccn1)c1cnn2c(-c3ccncc3)ccnc12` [Ocinaplon di HBr], in series [1] (setting [3]), the Tmax worked out at 0.9 h, the half-life was 0.83 h, the total exposure AUC(0-inf) came to 38100 ng·h/mL and the Cmax was 13600 ng/mL. Also, in series [1], the “AUC of ocinaplon relative to an equivalent amount of the free base” value is “did not differ”, the “Cmax of ocinaplon relative to an equivalent amount of the free base” value is given as “more than two-fold; also recorded: approximately twice”, the “variability in plasma levels of ocinaplon compared to the free base” value is on record as “lower variability” and the “variability in the AUC (CV %) compared to the free base” value is on record as “dramatically less”. Besides, the AUC(0-t) in series [1] (30 mg Base/kg, single oral dose 30 mg Base/kg, 0.5% methylcellulose suspension, mean (CV %), N = 5) is 38000 ng·h/mL. For the same compound, the solubility in series [2] is 11500 µM and 5300 µg/mL.

In the case of `O=C(c1ccccn1)c1cnn2c(-c3ccncc3)ccnc12` [Ocinaplon Free base, pyridin-2-yl(7-(pyridin-4-yl)pyrazolo[1,5-a]pyrimidin-3-yl)methanone, reference compound], in series [1] (setting [4]), the Tmax was 1.8 h and the half-life is 1.61 h. Moreover, in series [1] (setting [5]), the AUC(0-inf) was found to be 37900 ng·h/mL, the area under the curve AUC(0-t) came out at 37600 ng·h/mL and the Cmax amounted to 6250 ng/mL. In series [1] (setting [6]), the AUC(0-inf) turned out to be 63200 ng·h/mL, the AUC(0-t) stood at 62500 ng·h/mL and the Cmax worked out at 10400 ng/mL. Also, the “Equilibrium Aqueous Solubility from Solid” value in series [2] is 0.4 mM and 0.1 mg/ml.
